In test [1] the target is T1, human dopamine D2L receptors (long isoform) (Homo sapiens, UniProt P14416).
T1 construct: expressed in transfected cells
In words: Dopamine D2L receptor binding, displacement of [125I] iodospiperone. To be noted: membranes of HEK-293 cells stably expressing human D2L; 0.01 nM [125I] iodospiperone; 25° C., 60 minutes; read-out: Ki(D2)*. How it is done:
(§1) The substance to be tested was either dissolved in methanol/Chremophor® (BASFAG) or in dimethyl sulfoxide and then diluted with water to the desired concentration.
(§2) Each assay mixture was run in triplicate.
The incubation buffer contained 50 mM tris, 120 mM NaCl, 5 mM KCl, 2 mM CaCl2, 2 mM MgCl2 and 0.1% bovine serum albumin. The buffer was adjusted to pH 7.4 with HCl.
(§3) After having been incubated at 25° C. for 60 minutes, the assay mixtures were filtered through a Whatman GF/B glass fiber filter under vacuum using a cell collecting device. The filters were transferred to scintillation viols using a filter transfer system. After 4 ml of Ultima Gold® (Packard) have been added, the samples were shaken for one hour and the radioactivity was then counted in a Beta-Counter (Packard, Tricarb 2000 or 2200CA). The cpm values were converted into dpm using a standard quench series and the program belonging to the instrument.
(§4) The inhibition curves were analyzed by means of iterative nonlinear regression analysis using the Statistical Analysis System (SAS) which is similar to the “LIGAND” program described by Munson and Rodbard.
(§5) The results of the receptro binding studies are expressed as receptor binding constants Ki(D2) and Ki(D3), respectively, as herein before described, and given in table 6.
(In general: In a radioligand displacement assay an active substance lowers the binding of a labelled ligand.)

Test [2] has as its target T2, human dopamine D3 receptors (Homo sapiens, UniProt P35462).
T2 construct: expressed in transfected cells
In words: Dopamine D3 receptor binding, displacement of [125I]-iodosulpride. The settings on record: for Ki: membranes of HEK-293 cells stably expressing human D3, 0.1 nM [125I]-iodosulpride, 25° C., 60 minutes; for Ki(D2)*/Ki(D3)*: selectivity ratio of the receptor binding constants D2 over D3. How it is done: as §1, §2
The incubation buffer contained 50 mM tris, 120 mM NaCl, 5 mM KCl, 2 mM CaCl2, 2 mM MgCl2 and 0.1% bovine serum albumin, 10 μM quinolone and 0.1% ascorbic acid (prepared fresh daily). The buffer was adjusted to pH 7.4 with HCl.
as §3, §4, §5

This is an account of results in patent US8470810B2, “Heterocyclic compounds suitable for treating disorders that respond to modulation of the dopamine D3 receptor” (Abbott GmbH & Co. KG, priority 2004, dated 2013).

T2 sequence (P35462 whole entry): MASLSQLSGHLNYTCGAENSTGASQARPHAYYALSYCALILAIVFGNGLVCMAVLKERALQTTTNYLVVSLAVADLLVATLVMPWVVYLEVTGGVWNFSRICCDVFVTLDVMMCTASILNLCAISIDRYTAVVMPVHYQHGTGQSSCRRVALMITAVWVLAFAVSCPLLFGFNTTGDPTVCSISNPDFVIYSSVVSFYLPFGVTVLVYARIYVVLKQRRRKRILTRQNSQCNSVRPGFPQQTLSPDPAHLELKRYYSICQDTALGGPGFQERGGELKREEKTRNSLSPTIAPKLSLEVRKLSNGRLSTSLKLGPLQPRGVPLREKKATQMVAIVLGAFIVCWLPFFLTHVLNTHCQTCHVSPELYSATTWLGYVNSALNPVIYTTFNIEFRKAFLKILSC
T1 sequence (P14416 whole entry, canonical isoform): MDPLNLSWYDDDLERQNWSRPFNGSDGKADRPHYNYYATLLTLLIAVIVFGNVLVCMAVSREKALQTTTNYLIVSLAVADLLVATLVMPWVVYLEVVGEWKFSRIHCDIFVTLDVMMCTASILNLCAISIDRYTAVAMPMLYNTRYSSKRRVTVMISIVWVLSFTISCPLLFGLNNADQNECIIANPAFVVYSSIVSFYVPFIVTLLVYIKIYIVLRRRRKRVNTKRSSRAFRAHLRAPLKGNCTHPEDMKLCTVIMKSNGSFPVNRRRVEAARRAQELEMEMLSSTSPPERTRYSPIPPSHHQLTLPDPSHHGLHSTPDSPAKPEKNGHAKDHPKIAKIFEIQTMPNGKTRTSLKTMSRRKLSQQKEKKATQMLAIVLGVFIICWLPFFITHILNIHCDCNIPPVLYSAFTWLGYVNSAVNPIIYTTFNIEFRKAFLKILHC

For `CCCN1CC(c2ccc(NS(=O)(=O)c3ccc([C@H](C)CF)cc3)cc2)C1` [Example 60, 4-((S)-2-Fluoro-1-methyl-ethyl)-N-[4-(1-propyl-azetidin-3-yl)-phenyl]-benzenesulfonamide], the inhibitory constant (Ki) stood at 7780 nM in test [1] and 7.63 nM in test [2]. For the same compound, the “Ki(D2)*/Ki(D3)*” value in test [2] is recorded as 1019.

`CCCN1CC(c2ccc(NS(=O)(=O)c3ccc(CC(F)(F)F)cc3)cc2)C1` [Example 62, N-[4-(1-Propyl-azetidin-3-yl)-phenyl]-4-(2,2,2-trifluoro-ethyl)-benzenesulfonamide]: the Ki in test [1] was found to be 3540 nM. Besides, in test [2], the affinity corresponds to a Ki of 25.2 nM and the “Ki(D2)*/Ki(D3)*” value is 141.

As for `CCCN1CC(c2ccc(NS(=O)(=O)c3ccc(C(C)C(F)(F)F)cc3)cc2)C1` (centres unmarked) [Example 63, N-[4-(1-Propyl-azetidin-3-yl)-phenyl]-4-(2,2,2-trifluoro-1-methyl-ethyl)benzenesulfonamide], the Ki in test [1] turned out to be 647 nM. For the same compound, in test [2], the affinity, expressed as Ki, was 5.75 nM and the “Ki(D2)*/Ki(D3)*” value stood at 113.

`CCCN1CC(c2ccc(NS(=O)(=O)c3ccc(C(C)C(F)F)cc3)cc2)C1` (centres unmarked) [Example 64, 4-(2,2-Difluoro-1-methyl-ethyl)-N-[4-(1-propyl-azetidin-3-yl)-phenyl]-benzenesulfonamide]: the Ki in test [1] worked out at 344 nM; in test [2] it was 2.1 nM. In test [2], the “Ki(D2)*/Ki(D3)*” value turned out to be 164.

As to `CCCN1CC[C@@H](c2ccc(NS(=O)(=O)c3ccc(-c4csnn4)cc3)cc2)C1` [Example 65, N-[4-((S)-1-Propyl-pyrrolidin-3-yl)-phenyl]-4-[1,2,3]thiadiazol-4-yl-benzenesulfonamide], the inhibitory constant (Ki) in test [1] turned out to be 197 nM; in test [2], 6.79 nM. The “Ki(D2)*/Ki(D3)*” value in test [2] was determined as 29.

`CCCN1CC[C@@H](c2ccc(NS(=O)(=O)c3ccc(N4CCCC4)cc3)cc2)C1` [Example 67, N-[4-((S)-1-Propyl-pyrrolidin-3-yl)-phenyl]-4-pyrrolidin-1-yl-benzenesulfonamide]: in test [1], the Ki was 3.88 nM. Further, in test [2], the inhibitory constant (Ki) is 0.35 nM and the “Ki(D2)*/Ki(D3)*” value was found to be 11.

As for `CCCN1CC[C@@H](c2ccc(NS(=O)(=O)c3ccc(SC(F)(F)F)cc3)cc2)C1` [Example 68, N-[4-((S)-1-Propyl-pyrrolidin-3-yl)-phenyl]-4-trifluoromethylsulfanyl-benzenesulfonamide], the values for the Ki in test [1] and in test [2] were 142 nM and 3 nM, respectively. In addition, the “Ki(D2)*/Ki(D3)*” value in test [2] turned out to be 47.

For `CCCN1CC[C@@H](c2ccc(NS(=O)(=O)c3ccc(-n4cccn4)cc3)cc2)C1` [Example 69, N-[4-((S)-1-Propyl-pyrrolidin-3-yl)-phenyl]-4-pyrazol-1-yl-benzenesulfonamide], the Ki in test [1] amounted to 90.3 nM; in test [2], 2.51 nM. Moreover, the “Ki(D2)*/Ki(D3)*” value in test [2] was 36.

For `CCCN1CC[C@@H](c2ccc(NS(=O)(=O)c3ccc(-c4cnco4)cc3)cc2)C1` [Example 70, 4-Oxazol-5-yl-N-[4-((S)-1-propyl-pyrrolidin-3-yl)-phenyl]-benzenesulfonamide], in test [1], the Ki came to 37.3 nM. In test [2], the inhibitory constant (Ki) amounted to 0.84 nM and the “Ki(D2)*/Ki(D3)*” value stood at 44.

With `CCCN1CC[C@@H](c2ccccc2NS(=O)(=O)c2ccc(-c3cnco3)cc2)C1` [Example 71, 4-Oxazol-5-yl-N-[2-((S)-1-propyl-pyrrolidin-3-yl)-phenyl]-benzenesulfonamide], in test [1], the inhibitory constant (Ki) came to 52.3 nM. Besides, in test [2], the Ki worked out at 4.79 nM and the “Ki(D2)*/Ki(D3)*” value was found to be 11.

For `CCCN1CC[C@@H](c2ccc(NS(=O)(=O)c3ccc(N4CCCC4=O)cc3)cc2)C1` [Example 72, 4-(2-Oxo-pyrrolidin-1-yl)-N-[4-((S)-1-propyl-pyrrolidin-3-yl)-Phenyl]-benzenesulfonamide], the Ki in test [1] turned out to be 473 nM. Further, in test [2], the Ki was 35.1 nM and the “Ki(D2)*/Ki(D3)*” value is listed as 13.

As to `CCCN1CC[C@@H](c2ccc(NS(=O)(=O)c3ccc(-c4ccco4)cc3)cc2)C1` [Example 73, 4-Furan-2-yl-N-[4-((S)-1-propyl-pyrrolidin-3-yl)-phenyl]-benzenesulfonamide], the Ki in test [1] came to 6.73 nM; in test [2], 0.61 nM.

Take `CCCN1CC[C@@H](c2ccc(NS(=O)(=O)c3ccc(N4CCC4)cc3)cc2)C1` [Example 75, 4-Azetidin-1-yl-N-[4-((S)-1-propyl-pyrrolidin-3-yl)-phenyl]-benzenesulfonamide]: in test [1], the Ki is 12.2 nM. For the same compound, in test [2], the Ki stood at 0.63 nM and the “Ki(D2)*/Ki(D3)*” value turned out to be 19.

On to `CCCN1CC[C@@H](c2ccc(NS(=O)(=O)c3ccc(C(C)C(F)F)cc3)cc2)C1` (stereo partly drawn) [Example 77, 4-(2,2-Difluoro-1-methyl-ethyl)-N-[4-((S)-1-propyl-pyrrolidin-3-yl)-phenyl]-benzenesulfonamide], for which the inhibitory constant (Ki) in test [1] was 50 nM. For the same compound, in test [2], the inhibition constant (Ki) was determined as 1.33 nM and the “Ki(D2)*/Ki(D3)*” value is listed as 37.

Regarding `CCCN1CC[C@@H](c2ccc(NS(=O)(=O)c3ccc(C(C)C(F)(F)F)cc3)cc2)C1` (stereo partly drawn) [Example 78, N-[4-((S)-1-Propyl-pyrrolidin-3-yl)-phenyl]-4-(2,2,2-trifluoro-1-methyl-ethyl)benzenesulfonamide], the Ki in test [1] amounted to 41.9 nM. In test [2], affinity was put at a Ki of 1.4 nM and the “Ki(D2)*/Ki(D3)*” value came to 30.

As for `CCCN1CC[C@@H](c2ccc(NS(=O)(=O)c3cc4ccccc4o3)cc2)C1` [Example 79, Benzofuran-2-sulfonic acid [4-((S)-1-propyl-pyrrolidin-3-yl)-phenyl]-amide], in test [1], the Ki was found to be 1110 nM. Moreover, in test [2], the Ki was 13.5 nM and the “Ki(D2)*/Ki(D3)*” value was determined as 82.

On to `CCCN1CC[C@@H](c2ccc(NS(=O)(=O)c3ccc(-c4ccno4)s3)cc2)C1` [Example 80, 5-Isoxazol-5-yl-thiophene-2-sulfonic acid [4-((S)-1-propyl-pyrrolidin-3-yl)-phenyl]-amide], for which the inhibition constant Ki in test [1] was 1100 nM. Moreover, in test [2], the Ki was found to be 37.6 nM and the “Ki(D2)*/Ki(D3)*” value is 29.

With `CCCN1CC[C@@H](c2ccc(NS(=O)(=O)c3ccc(-c4ccon4)s3)cc2)C1` [Example 81, 5-Isoxazol-3-yl-thiophene-2-sulfonic acid [4-((S)-1-propyl-pyrrolidin-3-yl)-phenyl]-amide], the Ki in test [1] came out at 1160 nM. Also, in test [2], the affinity corresponds to a Ki of 31.3 nM and the “Ki(D2)*/Ki(D3)*” value came to 37.

On to `CCCN1CC[C@@H](c2ccc(NS(=O)(=O)c3ccc(-c4cnco4)s3)cc2)C1` [Example 82, 5-Oxazol-5-yl-thiophene-2-sulfonic acid [4-((S)-1-propyl-pyrrolidin-3-yl)-phenyl]-amide], for which the Ki in test [1] stood at 437 nM. Also, in test [2], the Ki came to 5.59 nM and the “Ki(D2)*/Ki(D3)*” value is 78.

Consider `CCN1CC[C@@H](c2ccc(NS(=O)(=O)c3ccc(C(C)C)cc3)cc2)C1` [Example 84, 4-Isopropyl-N-[4-((S)-1-ethyl-pyrrolidin-3-yl)-phenyl]-benzenesulfonamide], for which the Ki in test [1] stood at 16.2 nM. In test [2], affinity was put at a Ki of 0.95 nM and the “Ki(D2)*/Ki(D3)*” value turned out to be 17.

For `CC(C)c1ccc(S(=O)(=O)Nc2ccc([C@@H]3CCN(C)C3)cc2)cc1` [Example 85, 4-Isopropyl-N-[4-((S)-1-methyl-pyrrolidin-3-yl)-phenyl]-benzenesulfonamide], the Ki in test [1] is 18.5 nM; in test [2] it was 0.57 nM. Besides, the “Ki(D2)*/Ki(D3)*” value in test [2] is listed as 32.

`CCCN1CC[C@@H](c2ccc(NS(=O)(=O)c3ccc(CCF)cc3)cc2)C1.Cl` [Example 86, 4-(2-Fluoro-ethyl)-N-[4-((S)-1-propyl-pyrrolidin-3-yl)-phenyl]-benzenesulfonamide, hydrochloride]: the Ki in test [1] amounted to 119 nM. Also, in test [2], the Ki is 1.18 nM and the “Ki(D2)*/Ki(D3)*” value was determined as 101.

Regarding `CCCN1CC[C@@H](c2ccc(NS(=O)(=O)c3ccc([C@H](C)CF)cc3)cc2)C1` [Example 87, 4-((S)-2-Fluoro-1-methyl-ethyl)-N-[4-((S)-1-propyl-pyrrolidin-3-yl)-phenyl]-benzenesulfonamide], the inhibitory constant (Ki) was 20.5 nM in test [1] and 0.55 nM in test [2]. Besides, in test [2], the “Ki(D2)*/Ki(D3)*” value was determined as 37.

In the case of `CCCN1CC[C@@H](c2ccc(NS(=O)(=O)c3ccc(CCC(F)(F)F)cc3)cc2)C1` [Example 88, N-[4-((S)-1-Propyl-pyrrolidin-3-yl)-phenyl]-4-(3,3,3-trifluoro-Propyl)-benzenesulfonamide], the inhibition constant (Ki) in test [1] worked out at 41 nM. Further, in test [2], the Ki stood at 0.92 nM and the “Ki(D2)*/Ki(D3)*” value is reported as 45.

With `CCCc1ccc(S(=O)(=O)Nc2ccc([C@@H]3CCN(CCC)C3)cc2)s1` [Example 89, 5-Propyl-thiophene-2-sulfonic acid [4-((S)-1-propyl-pyrrolidin-3-yl)-phenyl]-amide], the values for the inhibition constant Ki in test [1] and in test [2] were 27 nM and 0.6 nM, respectively. For the same compound, in test [2], the “Ki(D2)*/Ki(D3)*” value was determined as 45.

Broadly, the Ki is a dissociation constant, usually derived from enzyme kinetics or from competition with a known ligand.
